The text below walks through data of patent US7608603B2, “Substituted pyrazolo[3,4-D]pyrimidines as p38 MAP kinase inhibitors” (Roche Palo Alto LLC, priority 2005, dated 2009).

pIC50: −log10 of the molar value. Counter-ions that a name gives are not always drawn.

Usually Cmax stands for the peak of the concentration-time curve. In general, AUC refers to the area under the concentration-time curve, a measure of exposure. A word on the melting point: it is the temperature of the solid-liquid transition. For orientation: pIC50 means −log10 of the IC50, conventionally taken in molar units.

Data set [1] can be described thus: Pharmacokinetic parameters in rats after oral administration of the phosphate prodrug (Example 6). In kind it is in vivo. The settings on record: for Cmax / AUC: male, Crl:WI(GLx/BRL/Han)IGS BR (Hanover-Wistar), po, rat plasma; for Cmax: phosphate prodrug given orally (gavage, aqueous suspension). The source says: Male Crl:WI(GLx/BRL/Han)IGS BR (Hanover-Wistar) rats weighing 240-260 g were cannulated. Groups of three rats were used for each dose level of an experimental compound. One additional non-cannulated animal was included as vehicle control. Animals were allowed normal access to food and water throughout the experiment. The test substance phosphoric acid mono-{2-[3-(2-chloro-phenyl)-6-(2,4-difluoro-phenoxy)-1H-pyrazolo[3,4-d]pyrimidin-4-ylamino]-1-methyl-ethyl}ester was formulated as an aqueous suspension and a dose of 3 or 30 mg/kg (in 1-[3-(2-chloro-phenyl)-6-(2,4-difluoro-phenoxy)-1H-pyrazolo[3,4-d]pyrimidin-4-ylamino]-propan-2-ol equivalent) was administered orally through gavage. A blood sample (0.3 mL) was collected from the each treated rat at 0 (predose), 0.083, 0.25, 1, 2, 4, 6, and 8 hr after dose via the jugular cannula. At 24 hr after dosing, blood was collected from each treated rat via cardiac puncture. Blood was also collected from the untreated animal at 24 hr via cardiac puncture. Lithium heparin was added to the samples which were stored on ice during sampling procedure. The samples were spun in a refrigerated centrifuge at 4° C. as soon as possible and the plasma samples were stored −20° C. immediately after centrifugation and until analysis. The concentration of test compound was determined by HPLC-MS/MS. […] The prodrug phosphoric acid mono-{2-[3-(2-chloro-phenyl)-6-(2,4-difluoro-phenoxy)-1H-pyrazolo[3,4-d]pyrimidin-4-ylamino]-1-methyl-ethyl}ester was not detected in the rat plasma (at quantification limit of 0.0005 μg/mL) with the 3-mg/kg dose.

Data set [2] in a line: Pharmacokinetic parameters in rats after oral administration of the succinate prodrug (Example 7). In kind it is in vivo. Conditions: male, Crl:WI(GLx/BRL/Han)IGS BR (Hanover-Wistar), rat plasma; for Cmax: succinate prodrug given orally (gavage, aqueous suspension); for AUC: succinate prodrug given orally. The method, then:
Male Crl:WI(GLx/BRL/Han)IGS BR (Hanover-Wistar) rats weighing 240-260 g were cannulated. Groups of three rats were used for each dose level of an experimental compound. The test substance succinic acid mono-[3-(2-chloro-phenyl)-6-(2,4-difluoro-phenoxy)-4-(2-hydroxy-2-methyl-propylamino)-pyrazolo[3,4-d]pyrimidin-1-ylmethyl]ester was formulated as an aqueous suspension, and a dose of 3 or 10 mg/kg (in 1-[3-(2-Chloro-phenyl)-6-(2,4-difluoro-phenoxy)-1H-pyrazolo[3,4-d]pyrimidin-4-ylamino]-2-methyl-propan-2-ol equivalent) was administered orally through gavage. A blood sample (0.3 mL) was collected from the each treated rat at 0 (predose), 0.083, 0.25, 1, 2, 4, 6, and 8 h after dose via the jugular cannula. At 24 h after dosing, blood was collected from each treated rat via cardiac puncture. Lithium heparin was added to the samples which were stored on ice during sampling procedure. The samples were spun in a refrigerated centrifuge at 4° C. as soon as possible and the plasma samples were stored −20° C. immediately after centrifugation and until analysis. The concentration of test compound was determined by HPLC-MS/MS.

Data set [3] has as its target T1, p38 MAP kinase (Homo sapiens, UniProt Q16539).
T1 construct: made in house; host or cells: E. coli (co-expressed with SEK-1 and MEKK)
Kind of data set: p38 (MAP) kinase in vitro assay, transfer of γ-33P from ATP to Myelin Basic Protein. In kind it is biochemical. Conditions: phosphorylated recombinant p38 MAP kinase, MBP substrate. How it is done:
The p38 MAP kinase inhibitory activity of compounds of this invention in vitro was determined by measuring the transfer of the γ-phosphate from γ-^33P-ATP by p-38 kinase to Myelin Basic Protein (MBP), using a minor modification of the method described in Ahn, et al., J. Biol. Chem. 266:4220-4227 (1991).
The phosphorylated form of the recombinant p38 MAP kinase was co-expressed with SEK-1 and MEKK in E. Coli (see, Khokhlatchev, et al., J. Biol. Chem. 272:11057-11062 (1997)) and then purified by affinity chromatography using a Nickel column.
The phosphorylated p38 MAP kinase was diluted in kinase buffer (20 mM 3-(N-morpholino)propanesulfonic acid, pH 7.2, 25 mM β-glycerol phosphate, 5 mM ethylene glycol-bis(beta-aminoethyl ether)-N,N,N′,N′-tetraacetic acid, 1 mM sodium ortho-vanadate, 1 mM dithiothreitol, 40 mM magnesium chloride). Test compound dissolved in DMSO or only DMSO (control) was added and the samples were incubated for 10 min at 30° C. The kinase reaction was initiated by the addition of a substrate cocktail containing MBP and γ-^33P-ATP. After incubating for an additional 20 min at 30° C., the reaction was terminated by adding 0.75% phosphoric acid. The phosphorylated MBP was then separated from the residual γ-^33P-ATP using a phosphocellulose membrane (Millipore, Bedfrod, Mass.) and quantitated using a scintillation counter (Packard, Meriden, Conn.).

The mark [4] stands for this setting: phosphate prodrug given orally, 30 mg/kg in parent equivalent.

T1 sequence (Q16539 whole entry): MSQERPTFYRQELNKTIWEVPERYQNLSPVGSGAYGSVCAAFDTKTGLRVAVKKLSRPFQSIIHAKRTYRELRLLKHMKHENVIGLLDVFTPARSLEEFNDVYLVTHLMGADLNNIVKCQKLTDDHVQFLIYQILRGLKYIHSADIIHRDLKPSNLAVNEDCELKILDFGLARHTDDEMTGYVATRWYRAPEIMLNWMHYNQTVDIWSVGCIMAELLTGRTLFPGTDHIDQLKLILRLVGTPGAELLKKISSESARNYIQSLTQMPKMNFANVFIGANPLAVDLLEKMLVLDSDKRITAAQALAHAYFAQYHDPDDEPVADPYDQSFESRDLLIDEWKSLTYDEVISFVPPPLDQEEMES

Turning to `C[C@H](O)CNc1nc(Oc2ccc(F)cc2F)nc2[nH]nc(-c3ccccc3Cl)c12` [1-[3-(2-chloro-phenyl)-6-(2,4-difluoro-phenoxy)-1H-pyrazolo[3,4-d]pyrimidin-4-ylamino]-propan-2-ol], the peak concentration (Cmax) in data set [1] (3 mg/kg in parent equivalent) amounted to 1330 ng/mL; in data set [1] (30 mg/kg in parent equivalent) it was 9800 ng/mL. The area under the curve (AUC) in data set [1] (phosphate prodrug given orally, 3 mg/kg in parent equivalent) stood at 12600 ng·h/mL; in data set [1] (setting [4]), 124000 ng·h/mL.

Turning to `C[C@@H](CNc1nc(Oc2ccc(F)cc2F)nc2[nH]nc(-c3ccccc3Cl)c12)OP(=O)(O)O` [phosphoric acid mono-{2-[3-(2-chloro-phenyl)-6-(2,4-difluoro-phenoxy)-1H-pyrazolo[3,4-d]pyrimidin-4-ylamino]-1-methyl-ethyl}ester], the Cmax in data set [1] (30 mg/kg in parent equivalent) turned out to be 214 ng/mL. Further, the AUC in data set [1] (setting [4]) is 188 ng·h/mL. The “concentration in rat plasma (not detected at quantification limit)” value in data set [1] (phosphate prodrug given orally, 3 mg/kg dose) is below 0.5 ng/mL.

As to `CC(C)(O)CNc1nc(Oc2ccc(F)cc2F)nc2c1c(-c1ccccc1Cl)nn2COC(=O)CCC(=O)O` [Succinic acid mono-[3-(2-chloro-phenyl)-6-(2,4-difluoro-phenoxy)-4-(2-hydroxy-2-methyl-propylamino)-pyrazolo[3,4-d]pyrimidin-1-ylmethyl]ester], the Cmax is 1830 ng/mL in data set [2] (3 mg/kg in parent equivalent) and 9250 ng/mL in data set [2] (10 mg/kg in parent equivalent). The AUC in data set [2] (3 mg/kg in parent equivalent) was 6110 ng·h/mL; in data set [2] (10 mg/kg in parent equivalent), 20900 ng·h/mL.

`C[C@@H](CNc1nc(Oc2ccc(F)cc2F)nc2[nH]nc(-c3ccccc3Cl)c12)OP(=O)(O)O` (as salt: sodium) [phosphoric acid mono-{2-[3-(2-chloro-phenyl)-6-(2,4-difluoro-phenoxy)-1H-pyrazolo[3,4-d]pyrimidin-4-ylamino]-1-methyl-ethyl}ester] gave a melting point above 300 °C.

Consider `OCC(O)CNc1nc(Oc2ccc(F)cc2F)nc2[nH]nc(-c3ccccc3Cl)c12` (centres unmarked) [3-[3-(2-Chloro-phenyl)-6-(2,4-difluoro-phenoxy)-1H-pyrazolo[3,4-d]pyrimidin-4-ylamino]-propane-1,2-diol], for which the pIC50 in data set [3] is 8.40.

Turning to `CC(C)(O)CNc1nc(Oc2ccc(F)cc2F)nc2[nH]nc(-c3ccccc3Cl)c12` [1-[3-(2-Chloro-phenyl)-6-(2,4-difluoro-phenoxy)-1H-pyrazolo[3,4-d]pyrimidin-4-ylamino]-2-methyl-propan-2-ol], in data set [2] (3 mg/kg in parent equivalent), the Cmax was 1340 ng/mL and the AUC stood at 9270 ng·h/mL. In addition, in data set [2] (10 mg/kg in parent equivalent), the Cmax was 7050 ng/mL and the AUC came out at 47400 ng·h/mL.
